Reference: US9233946B2, “Sulfonamide compounds” (KANCERA AB, priority 2010, dated 2016)

Target: PFKFB3 (Homo sapiens (Human), UniProt Q16875)
Assay: PFKFB3 kinase activity, Method A (F-2,6-P2 production, coupled PPi-PFK/NADH assay)
Assay type: biochemical
Excerpt: The PFKFB3 (placenta form) and PFKFB4 were produced and purified to homogeneity from E. coli at Biovitrum and at Sprint Bioscience. All other reagents were purchased from commercial sources. Two independent methods have been used for determination of the kinase activity of PFKFB3 (Method A and Method B). Method B has been used for determination of the kinase activity of PFKFB4.
Method A: The kinase activity of the bi-functional enzyme is readily quantified based on the production of F-2,6-P2 as described by Van Schaftingen et al. (1982) Eur. J. Biochem. 129, 191-5. This sensitive assay is based on the potent activation of pyrophosphate dependent phosphofructokinase-1 (PPi-PFK) from potato tubers by F-2,6-P2. The use of a series of coupled enzymes leads to a consumption of NADH (nicotinamide adenine dinucleotide) that can be followed spectrophotometrically (an updated protocol is available in Van Schaftingen, (1984) Methods of Enzymatic Analysis (Bergmeyer, H. U., ed.), 3rd edn., vol. 6, pp. 335-341, Verlag Chemie, Weinheim). A protocol for measurements in 96-well microtiter plate format is also available (Bruni et al., (1989) Anal. Biochem. 178, 324-6). These assay protocols have been adopted for the measurement of the kinase activity of PFKFB3 with some modifications as described in the protocol below.
The assay was run in 96-well microtiter plates (Costar 3365 round bottom polypropylene) by consecutive additions of 30 μl each of a test compound solution (diluted from a DMSO stock solution), a PFKFB3 solution and a substrate (fructose-6-phosphate (F6P) and adenosine-5′-triphosphate (ATP)) containing solution. […] The final concentrations of all reagents in a total assay volume of 90 μl per well were: • 50 mM Tris-acetate at pH 8.0 • 0.1 mM EDTA (ethylene diamine tetraacetic acid) • 10 mM MgCl2 • 5 mM Na2HPO4 (buffered by the Tris-acetate to a final pH of 8.0) • 5 nM PFKFB3 • 4 μM ATP • 100 μM F6P (acid treated and then neutralized to remove any contaminating F-2,6-P2; see Van Schaftingen, 1984) • 1 mM dithiothreitol (DTT) • 0.005% Tween-20
A test compound at various concentrations (which also added 0.83% DMSO to the final solution)
The enzymatic reaction was allowed to proceed for 10 minutes at room temperature while on a plate shaker at medium speed (750 RPM). The reaction was then terminated by the addition of 90 μl of a 0.4 M NaOH solution to all wells. The plate was then placed on the plateshaker at the same speed for two minutes to allow sufficient mixing. All samples were then diluted by a factor of 10 by transferring 20 μl from each well to the corresponding well of a new plate with 180 μl distilled water predispensed to all wells.
The next step in the protocol was quantification of the levels of F-2,6-P2 in each well of the microtiter plate. This was done by transferring 20 μl of the content in each well to the corresponding position in a new plate (Nunc 269620 transparent 96-well plate). […] To ensure that all measured values were within the linear range of the response (measured to be between 0-1 nM of F-2,6-P2 as also described by Van Schaftingen) the same volume of a 2.5 nM and a 5.0 nM standard sample were also added to column 12 (as all samples were diluted five-fold in the assay procedure this corresponds to 0.5 and 1.0 nM samples). The procedure then involved consecutive additions of three solutions with the following premixed components: • Assay-mix (20 μl): Tris-acetate at pH 8.0, NADH and Mg(OAc)2 • PPi/F6P-mix (40 μl): Pyrophosphate and F6P • Enzyme-mix (20 μl): Tris-acetate at pH 8.0, aldolase, triose phosphate isomerase, glycerol-3-phosphate dehydrogenase, pyrophosphate-dependent phosphofructokinase from potato tubers and bovine serum albumin (BSA) […]

PFKFB3, sequence (Q16875 whole entry): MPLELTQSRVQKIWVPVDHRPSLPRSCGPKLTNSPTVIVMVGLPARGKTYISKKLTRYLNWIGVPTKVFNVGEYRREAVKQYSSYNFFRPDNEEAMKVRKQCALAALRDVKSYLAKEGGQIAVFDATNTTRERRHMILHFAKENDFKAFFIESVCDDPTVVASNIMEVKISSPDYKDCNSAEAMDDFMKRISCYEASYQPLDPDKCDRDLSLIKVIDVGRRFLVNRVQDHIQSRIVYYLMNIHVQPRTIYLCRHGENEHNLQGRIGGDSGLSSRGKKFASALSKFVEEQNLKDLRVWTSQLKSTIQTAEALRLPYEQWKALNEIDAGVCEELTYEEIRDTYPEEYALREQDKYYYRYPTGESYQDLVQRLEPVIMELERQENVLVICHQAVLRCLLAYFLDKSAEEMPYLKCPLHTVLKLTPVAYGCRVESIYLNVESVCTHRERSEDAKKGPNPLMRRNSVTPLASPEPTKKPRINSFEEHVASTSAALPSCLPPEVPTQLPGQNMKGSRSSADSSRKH

Row | IC50 [nM] | SMILES
1 | 30 | Cc1c(S(=O)(=O)Nc2cccc(C(=O)O)c2)sc2ccc(C(C)C)cc12 [Example 5, 3-{[(5-Isopropyl-3-methyl-1-benzothien-2-yl)sulfonyl]amino}benzoic acid]
2 | 180 | Cc1c(S(=O)(=O)Nc2cccc(C(=O)O)c2)sc2ccc(Cl)cc12 [Example 38, 3-{[(5-Chloro-3-methyl-1-benzothien-2-yl)sulfonyl]amino}benzoic acid]
